We go through three molecules from PMC10262914 (Bioorganic chemistry, 2022).

Values after ≈ are worked out from the molar mass of the structure shown. Read-outs that look alike come from different tables or passages of the source.

Data set [1] can be described thus: Microsomal stability assay, mouse. The note with it: mouse hepatic microsomes.
A short description of data set [2]: Microsomal stability assay, marmoset. The following applies: marmoset hepatic microsomes.
Data set [3] in a line: Microsomal stability assay, human. The following applies: human hepatic microsomes.
For data set [4], the system named is Mycobacterium tuberculosis H37Rv. Kind of data set: Alamar blue metabolic readout assay. The format is cell-based. The note with it: for MIC: Mycobacterium tuberculosis, H37RV, read-out: 7H12 MIC. (Resazurin is reduced to fluorescent resorufin, in cell work by metabolically active cells.)
Data set [5] has the same test system. Kind of data set: Alamar blue metabolic readout assay. It is filed as cell-based. The following applies: for GAS MIC: M. tuberculosis H37Rv, GAS media; for MIC: Mycobacterium tuberculosis, H37RV, read-out: GAS MIC.
The test system is the same in data set [6]. Kind of data set: Low oxygen recovery assay. The format is cell-based. The note with it: for MIC: Mycobacterium tuberculosis, H37RV, read-out: LORA MIC.
Data set [7] in a line: in vitro. The note with it: mouse, microsomes, pH 7.4.
Data set [8] in a line: in vitro. The following applies: human, microsomes, pH 7.4.
The conditions of data set [9]: microsomes.
For data set [10], the system named is VERO cells (kidney epithelial cells). The experiment in a line: Toxicity against VERO cells. The format is cell-based. The note with it: Chlorocebus sabaeus, Vero, read-out: Vero IC50, toxicity against Vero cells.
Data set [11] is described as follows: in vitro. The following applies: monkey, microsomes, pH 7.4.
For data set [12] the following is noted: mouse, microsomes.
For data set [13] the following is noted: human, microsomes.
For data set [14] the following is noted: dog, microsomes.
Data set [15] in a line: in vitro. The note with it: rat, microsomes, pH 7.4.
Data set [16] in a line: in vitro. The note with it: dog, microsomes, pH 7.4.
The conditions of data set [17]: rat, microsomes.

In the case of `[2H]c1c(C([2H])([2H])[2H])cn2c(C(=O)NC([2H])([2H])c3ccc(C(F)(F)F)cc3)c(C([2H])([2H])[2H])nc2c1[2H]` [Compound 57, 2,6-Bis(Methyl-d3)-N-((4-(trifluoromethyl)phenyl)methyl-d2) imidazo[1,2-a]pyridine-7,8-d2-3-carboxamide], the CLint amounted to 78 ml/min/g protein in [1], 60 ml/min/g protein in data set [2] and 32 ml/min/g protein in data set [3]. In addition, the Half-life came out at 23 min in [2] (2 μM compound, 0.5 mg/mL) and 43 min in data set [3] (2 μM compound, 0.5 mg/mL). For the same molecule, the “7H12 MIC” value in [4] (M. tuberculosis H37Rv, 7H12 media) worked out at 6.7 ± 0.9 nM. Further, the “GAS MIC” value in [5] was found to be 5.7 ± 1.2 nM. Moreover, the “LORA MIC” value in data set [6] (M. tuberculosis H37Rv, low oxygen "latent" conditions) is on record as >10,000 nM.

In general, half-life refers to the time in which the quantity being followed falls by half. A lower half-life goes with fast loss. The IC50 is the concentration needed to halve the response being measured. Broadly, the MIC is the least concentration at which growth counts as inhibited. `[2H]c1c(C)cn2c(C(=O)NCc3ccc(C(F)(F)F)cc3)c(C([2H])([2H])[2H])nc2c1[2H]` [Compound 52, 6-Methyl-2-(methyl-d3)-N-(4-(trifluoromethyl)benzyl)imidazo [1,2-a]pyridine-7,8-d2-3-carboxamide]: the half-life at 2 μM came out at 16 min in the data set “in vitro [7]”, 46 min in “in vitro [8]” and 12 min in the data set “in vitro [11]”. The CLint in data set [9] is on record as 116 ml/min/g protein; in data set [12], 87 ml/min/g protein; in [13] it was 30 ml/min/g protein. Besides, in data set [10], the IC50 was over 50 µM. In addition, the results for the MIC in [4], in data set [5] and in data set [6] were 3.9 ± 1.6 nM (≈ 1.37 ng/mL), 7.4 ± 2.8 nM (≈ 2.61 ng/mL) and over 10000 nM, respectively.

`[2H]c1c(C([2H])([2H])[2H])c([2H])n2c(C(=O)NCc3ccc(C(F)(F)F)cc3)c(C)nc2c1[2H]` [Compound 30, 2-Methyl-6-(methyl-d3)-N-(4-(trifluoromethyl)benzyl)imidazo [1,2-a]pyridine-5,7,8-d3-3-carboxamide]: the half-life at 2 μM is 20 min in the data set “in vitro [7]”; 53 min in the data set “in vitro [8]”; 50 min in “in vitro [15]”; 12 min in the data set “in vitro [11]”; 22 min in “in vitro [16]”. Besides, the CLint is recorded as 64 mL/min/g protein in [14]; 116 ml/min/g protein in [9]; 70 ml/min/g protein in data set [12]; 26 ml/min/g protein in data set [13]; 28 mL/min/g protein in [17]. The IC50 in [10] was over 50 µM. The MIC in data set [4] is 3.8 ± 1.3 nM (≈ 1.34 ng/mL); in data set [5], 9.1 nM (≈ 3.22 ng/mL); in [6], over 10000 nM. Further, the “GAS MIC” value in data set [5] is on record as 9.1 ± 5.8 nM.
